ChEMBL document CHEMBL1122660 (J Med Chem, 1984)

Tests used:
P388 [1] = experiment: Minimum effective dose against P388 leukemic cells; format: functional; details: Mus musculus, read-out: MED
P388 [2] = experiment: Maximum percent T/C (antitumor activity) against P388 leukemia cells for Mitomycin C; format: functional, Mus musculus
P388 [3] = experiment: Optimum dose (mg/kg) against P388 leukemic cells; format: functional, Mus musculus
P388 [4] = experiment: Ratio of optimal dose (OD) and minimum effective dose (MED) required for antitumor activity in mice bearing P-388 lymphocytic leukemia; format: functional, Mus musculus
P388 [5] = experiment: Maximum percent T/C (antitumor activity) against P388 leukemia cells; format: functional, Mus musculus
[6] = Partition coefficient between 1-octanol and water containing phosphate buffer at pH 7.4; format: physicochemical; details: 1-octanol/water containing phosphate buffer

| Compound | minimal effective dose (P388 [1]) [mg/kg] | T/C (P388 [2]) [%] | OD (P388 [3]) [mg/kg] | Therapeutic ratio (P388 [4]) | T/C (P388 [5]) [%] | logD [6] |
| --- | --- | --- | --- | --- | --- | --- |
| COC12[C@@H]3N[C@@H]3CN1C1=C(C(=O)C(Nc3nc4c(Cl)cccc4s3)=C(C)C1=O)[C@@H]2COC(N)=O (stereo partly drawn) | 0.4 | 319 | 25.6 | 64 | 144 |  |
| COC12[C@@H]3N[C@@H]3CN1C1=C(C(=O)C(Nc3cccc(C#N)c3)=C(C)C1=O)[C@@H]2COC(N)=O (stereo partly drawn) | 0.2 | 156 | 12.8 | 64 | 172 | 0.73 |
| COC12[C@@H]3N[C@@H]3CN1C1=C(C(=O)C(Nc3ccc(F)cc3)=C(C)C1=O)[C@@H]2COC(N)=O (stereo partly drawn) |  | 278 | 12.8 | 32 | 167 | 1.44 |
| COC12[C@@H]3N[C@@H]3CN1C1=C(C(=O)C(Nc3ccccc3)=C(C)C1=O)[C@@H]2COC(N)=O (stereo partly drawn) | 1.6 | 200 | 12.8 | 8 | 161 | 1.3 |
| COC12[C@@H]3N[C@@H]3CN1C1=C(C(=O)C(Nc3nc4ccccc4s3)=C(C)C1=O)[C@@H]2COC(N)=O (stereo partly drawn) | 12.8 | 325 | 25.6 | 2 | 150 |  |
| COc1cc(NC2=C(C)C(=O)C3=C(C2=O)[C@H](COC(N)=O)C2(OC)[C@@H]4N[C@@H]4CN32)cc(OC)c1 (stereo partly drawn) | 0.4 | 278 | 6.4 | 16 | 161 |  |
| COC12[C@@H]3N[C@@H]3CN1C1=C(C(=O)C(Nc3ccc(C#N)cc3)=C(C)C1=O)[C@@H]2COC(N)=O (stereo partly drawn) | 0.8 | 233 | 3.2 | 4 | 150 | 0.72 |
| COC12[C@@H]3N[C@@H]3CN1C1=C(C(=O)C(Nc3cccc(Cl)c3)=C(C)C1=O)[C@@H]2COC(N)=O (stereo partly drawn) | 6.4 | 156 | 12.8 | 2 | 139 | 2.01 |
| COC12[C@@H]3N[C@@H]3CN1c1c(O)c(C)c(N=C3C=CC(=S)C=C3)c(O)c1[C@@H]2COC(N)=O (stereo partly drawn) | 1.6 | 250 | 25.6 | 16 | 131 | 1.69 |
| COC12[C@@H]3N[C@@H]3CN1C1=C(C(=O)C(Nc3cccc(NC(C)=O)c3)=C(C)C1=O)[C@@H]2COC(N)=O (stereo partly drawn) | 0.2 | 211 | 25.6 | 128 | 231 | 0.33 |
| COC12[C@@H]3N[C@@H]3CN1C1=C(C(=O)C(Nc3ccc4c(c3)OCO4)=C(C)C1=O)[C@@H]2COC(N)=O (stereo partly drawn) | < 0.2 | 211 | 3.2 | >16 | 167 |  |
| COc1cc(/N=C2/C(=O)C3=C(C(O)=C2C)N2C[C@H]4N[C@H]4C2(OC)[C@H]3COC(N)=O)c2ncccc2c1 (stereo partly drawn) | 0.4 | 178 | 6.4 | 16 | 178 |  |
| COC12[C@@H]3N[C@@H]3CN1C1=C(C(=O)C(Nc3ccc4[nH]ncc4c3)=C(C)C1=O)[C@@H]2COC(N)=O (stereo partly drawn) | 0.2 | 250 | 25.6 | 128 | 206 |  |
| [H][C@@]12CN3c4c(O)c(C)c(/N=C5C=C/C(=N/C(N)=O)C=C\5)c(O)c4[C@H](COC(N)=O)C3(OC)[C@]1([H])N2 (stereo partly drawn) | 1.6 | 278 | 25.6 | 16 | 194 | 0 |
| COC12[C@@H]3N[C@@H]3CN1C1=C(C(=O)C(Nc3cccc(O)c3)=C(C)C1=O)[C@@H]2COC(N)=O (stereo partly drawn) | < 0.2 | 211 | 12.8 | >64 | 356 | 0.63 |
| COC12[C@@H]3N[C@@H]3CN1C1=C(C(=O)C(Nc3ccc([N+](=O)[O-])cc3)=C(C)C1=O)[C@@H]2COC(N)=O (stereo partly drawn) | < 0.2 | 233 | 3.2 | >16 | 172 | 1.02 |
| COc1ccccc1/N=C1/C(=O)C2=C(C(O)=C1C)N1C[C@H]3N[C@H]3C1(OC)[C@H]2COC(N)=O (stereo partly drawn) | 0.4 | 206 | 25.6 | 128 | 200 |  |
| COC12[C@@H]3N[C@@H]3CN1C1=C(C(=O)C(Nc3nc4ccc([N+](=O)[O-])cc4s3)=C(C)C1=O)[C@@H]2COC(N)=O (stereo partly drawn) | 25.6 | 156 | 25.6 | 1 | 128 |  |
| COC12[C@@H]3N[C@@H]3CN1C1=C(C(=O)C(Nc3ccc(I)cc3)=C(C)C1=O)[C@@H]2COC(N)=O (stereo partly drawn) | 25.6 | 200 | 25.6 | 1 | 128 | 2.42 |
| COC12[C@@H]3N[C@@H]3CN1C1=C(C(=O)C(Nc3cccc4nsnc34)=C(C)C1=O)[C@@H]2COC(N)=O (stereo partly drawn) | 0.8 | 250 | 12.8 | 32 | 161 |  |
| COC12[C@@H]3N[C@@H]3CN1C1=C(C(=O)C(Nc3cccc(C)c3)=C(C)C1=O)[C@@H]2COC(N)=O (stereo partly drawn) | 0.4 | 319 | 12.8 | 32 | 181 | 1.83 |
| COc1cccc(NC2=C(C)C(=O)C3=C(C2=O)[C@H](COC(N)=O)C2(OC)[C@@H]4N[C@@H]4CN32)c1 (stereo partly drawn) | 0.2 | 319 | 12.8 | 64 | 181 | 1.28 |
| COC1=C/C(=N/c2c(C)c(O)c3c(c2O)[C@H](COC(N)=O)C2(OC)[C@@H]4N[C@@H]4CN32)C=CC1=N (stereo partly drawn) | 1.6 | 311 | 25.6 | 16 | 239 |  |
| COC12[C@@H]3N[C@@H]3CN1C1=C(C(=O)C(Nc3ccc(S(N)(=O)=O)cc3)=C(C)C1=O)[C@@H]2COC(N)=O (stereo partly drawn) | 0.2 | 213 | 25.6 | 128 | 225 | -0.52 |
| COc1ccc(NC2=C(C)C(=O)C3=C(C2=O)[C@H](COC(N)=O)C2(OC)[C@@H]4N[C@@H]4CN32)cc1N (stereo partly drawn) | 0.2 | 311 | 6.4 | 32 | 228 |  |
